Measured values: patent publication US8852876B2, “Label free biosensors and cells” (Corning Incorporated, priority 2008, dated 2014)

What was measured:
A3 receptor = target: T1, A3 receptor (Rattus norvegicus, UniProt P28647); settings: read-out: Affinity; cited from earlier work
T1 sequence (P28647 1-320): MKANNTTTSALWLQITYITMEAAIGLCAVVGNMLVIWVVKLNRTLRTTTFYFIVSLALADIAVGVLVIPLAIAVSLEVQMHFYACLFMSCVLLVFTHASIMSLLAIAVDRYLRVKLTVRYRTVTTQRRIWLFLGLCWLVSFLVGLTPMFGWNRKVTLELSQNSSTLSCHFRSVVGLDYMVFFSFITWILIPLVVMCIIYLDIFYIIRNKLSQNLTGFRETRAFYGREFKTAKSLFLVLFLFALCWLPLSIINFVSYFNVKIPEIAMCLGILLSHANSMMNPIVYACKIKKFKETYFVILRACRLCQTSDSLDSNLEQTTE

P2Y receptors = test: DMR optical biosensor assay, agonist efficacy; assay type: cell-based, human; settings: quiescent A431; n=3; read-out: Apparent EC50 (P-DMR amplitude, Gq-type)
[1] = test system: endogenous GPCRs in A431 cells; test: DMR optical biosensor profiling of GPCR agonists; assay type: cell-based, human; settings: quiescent A431; first class = Gq-type, second = Gs-type, third = Gi-type, fourth = no significant DMR
[2] = test system: EGF-induced response of quiescent A431 cells; test: Effect of compound pretreatment on EGF-induced DMR response; assay type: cell-based, human; settings: quiescent A431 cells; 32 nM EGF
How it was run: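 A431 cells were made quiescent by ≥16 h culture in no or ~0.1% FBS medium. After two HBSS/20 mM HEPES pH 7.4 buffer additions ≥15 min apart, compound was added and then stimulus. Real-time dynamic mass redistribution was tracked by resonant waveguide biosensor with angular interrogation.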

trypsin = test: BAEE hydrolysis assay; assay type: biochemical
[3] = test system: protease activated receptors PAR1 and PAR2; assay type: cell-based, human
How it was run: (§1)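 A431 cells at passage 3-5 grown in DMEM/10% FBS at 37° C, 5% CO2 to ~95% confluency (~2-4 days). Compounds and PAR agonists prepared in 1×HBSS to match the refractive index of the cell medium for dynamic mass redistribution (DMR) read-out.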

[4] = target: T2, protease activated receptors PAR1 and PAR2 (Homo sapiens, UniProt P25116); assay type: cell-based; settings: 40 unit/ml thrombin; modulators 10 μM
T2 construct: A431 cells which endogenously express PAR1 and PAR2; endogenous in cells; host or cells: A431
T2 sequence (P25116 22-425): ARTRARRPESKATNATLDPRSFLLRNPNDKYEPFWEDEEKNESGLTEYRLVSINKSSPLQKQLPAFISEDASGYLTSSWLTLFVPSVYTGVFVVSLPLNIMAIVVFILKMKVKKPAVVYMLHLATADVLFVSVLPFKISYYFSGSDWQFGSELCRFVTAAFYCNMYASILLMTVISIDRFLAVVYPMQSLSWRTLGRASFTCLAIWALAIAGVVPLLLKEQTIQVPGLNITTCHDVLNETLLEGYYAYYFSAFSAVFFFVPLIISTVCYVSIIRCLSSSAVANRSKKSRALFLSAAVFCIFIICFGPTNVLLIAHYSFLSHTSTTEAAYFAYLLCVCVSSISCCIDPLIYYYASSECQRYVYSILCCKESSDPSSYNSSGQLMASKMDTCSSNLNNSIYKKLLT
How it was run: as §1

A2A receptor = settings: read-out: Affinity; cited from earlier work
adenosine receptors = settings: read-out: Apparent EC50 (slowly increased P-DMR, Gs-type)
[5] = target: T3, Bombesin receptor subtype 1 (BRS1) (Homo sapiens, UniProt P28336); test: Fluo-3 Ca2+ mobilization assay; assay type: cell-based; settings: n=5
T3 construct: previously reported to endogenously express in A431 cells; endogenous in cells; host or cells: A431

β2 adrenergic receptor = target: T4, β2 adrenergic receptor (Homo sapiens, UniProt P07550); test: DMR optical biosensor assay, agonist efficacy; assay type: cell-based; settings: 10 μM pretreatment; 25 nM epinephrine
T4 construct: A431 endogenously expresses high numbers of β2 receptor; endogenous in cells; host or cells: A431

EGFR = target: T5, EGFR (Homo sapiens, UniProt P00533); test: EGF-induced DMR response of A431 cells on RWG optical biosensor; assay type: cell-based; settings: quiescent A431 cells
T5 construct: endogenously over-expressed EGFRs; endogenous in cells; host or cells: A431 (American Type Cell Culture)
Method: (§2) Both A431 and CHO-K1 cells were grown in Dulbecco's modified Eagle's medium (DMEM) supplemented with 10% fetal calf serum, 100 μg/ml penicillin, and 100 μg/ml streptomycin. For cell culture, certain numbers of cells (2×10^5 to 1×10^6), either A431 or CHO-K1, were suspended in […] medium were placed in each well of a 96 well Corning Epic Biosensor microplate, and were cultured at 37° C. in air/5% CO2 for certain time until the cell density reached ˜90% and above (unless specified). The resulted cells were termed as “profilerating” cells. The “quiescent” cells were obtained by culturing the profilerating cells of desired confluencies with a medium containing no or little (˜0.1% fetal bovine serum (FBS)) for at least 16 hours.
During the assays, the cells in 100 μl medium were subject to two 25 μl HBSS buffer containing 20 mM HEPES, pH 7.4, each separated by at least 15 minutes before 50 μl stimulus-containing solution was applied. […] For compound effect studies, a modified protocol was used which starts with 50 μl medium, and subject to sequential treatment: 25 μl HBSS buffer twice (each separated by at least 15 minutes), 50 μl compound solution and finally 50 μl stimulus-containing solution.

[6] = test system: protease activated receptors PAR1 and PAR2; test: Fluo-3 Ca2+ mobilization assay with PAR agonists; assay type: cell-based, human; settings: EGF 100 nM; trypsin 100 nM
How it was run: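 A431 cells (passage 3–5), serum-starved overnight, loaded with 4 μM Fluo-3 for 1 h in HBSS/20 mM HEPES pH 7.0 with 2.5 mM probenecid. PAR agonist added and calcium fluorescence recorded over 6 min at 6 s intervals, room temperature.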

CHO cells = test: EGF stimulation of CHO cells on optical biosensor (DMR); assay type: cell-based, Chinese hamster; settings: CHO cells incubated with EGF
Method: as §2
The cells, either proliferating or quiescent cells, were either directly used for assays or washed once with the corresponding medium (both result in no obvious difference in cell responses). During the assays, the cells in 100 μl medium were subject to two 25 μl HBSS buffer containing 20 mM HEPES, pH 7.4, each separated by at least 15 minutes before 50 μl stimulus-containing solution was applied. During all these steps, a parallel angular interrogation system was used to monitor the real time kinetics of cellular responses. […]

quiescent A431 cells = test: mβCD-induced response (cholesterol effluxing) on LID sensor; assay type: cell-based, human; settings: 20 nM EGF or 1000 nM H7; pretreated at least 40 minutes
From the text: The disclosed methods can be used to assay cholesterol transport and to, for example, screen for molecules that effect cholesterol transport, such as effluxing and uptake. […] This method is based on the measurement in real time of the effect of compounds on cholesterol effluxing. Depletion of cholesterol content on cell surface or intracellular pool results in the disappearance of microvilli located in the cell surface, resulting in the flatness of cells adherent on a surface. The flatness of cells leads to a positive DMR phase with increased signal. Based on this biological effect, we use reagents, as markers, that can either extract cholesterol from the cell surface (e.g., methyl-beta-cyclodextrin (mβCD), or high density lipoproteins (HDLs)), or bind or sequester cholesterol on the cell surface (e.g., saponin at relatively low concentrations). The changes obtained using optical biosensors can be used as an indicator of modulators that interfere with the cholesterol effuxing. FIG. 27 provides a schematic of a cholesterol pathway.

MC receptors = test: DMR optical biosensor assay, agonist efficacy; assay type: cell-based, human; settings: quiescent A431; n=3; read-out: Apparent EC50 (total responses of two P-DMR events)

T3 sequence (P28336 whole entry): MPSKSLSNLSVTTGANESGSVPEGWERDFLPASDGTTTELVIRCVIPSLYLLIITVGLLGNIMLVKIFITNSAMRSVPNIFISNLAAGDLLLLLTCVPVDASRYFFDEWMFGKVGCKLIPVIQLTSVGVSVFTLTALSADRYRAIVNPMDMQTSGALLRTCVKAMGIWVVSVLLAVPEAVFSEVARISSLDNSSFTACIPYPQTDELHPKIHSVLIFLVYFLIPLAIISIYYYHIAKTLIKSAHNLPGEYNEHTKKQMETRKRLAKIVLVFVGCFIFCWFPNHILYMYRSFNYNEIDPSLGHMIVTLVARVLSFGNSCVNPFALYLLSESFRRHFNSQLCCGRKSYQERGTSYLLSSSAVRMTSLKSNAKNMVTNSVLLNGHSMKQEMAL

NCCNC(=O)Cc1ccc(NC(=O)Cc2ccc(Nc3ncnc4c3ncn4[C@@H]3O[C@H](CO)[C@@H](O)[C@H]3O)cc2)cc1 [ADAC, adenosine amine cogener]
Ki (A3 receptor): 285 nM

Nc1ncnc2c1ncn2[C@@H]1O[C@H](COP(=O)(O)OP(=O)(O)OP(=O)(O)O)[C@@H](O)[C@H]1O [ATP]
EC50 (P2Y receptors): 2200 ± 600 nM | Class of optical signature (DMR) induced by agonist [1]: first class of optical signatures

CN([C@@H](Cc1ccc(OS(=O)(=O)c2cccc3cnccc23)cc1)C(=O)N1CCN(c2ccccc2)CC1)S(=O)(=O)c1cccc2cnccc12 [KN 62]
Effect of pretreatment on 32 nM EGF-induced response [2]: little effect on the response | Effect on trypsin activity (trypsin): no any obvious effect on the trypsin activity | Effect of pretreatment on trypsin-mediated DMR signal ([3]; 100 or 200 nM trypsin, modulators 10 μM): almost completely abolished the trypsin-mediated DMR signal | Effect of pretreatment on thrombin-mediated DMR signal [4]: slightly suppressed the thrombin-mediated DMR signal

CCNC(=O)[C@H]1O[C@@H](n2cnc3c(N)ncnc32)[C@H](O)[C@@H]1O [NECA]
Ki (A2A receptor): […] | EC50 (adenosine receptors): 21.5 ± 1.2 nM | Class of optical signature (DMR) induced by agonist [1]: second class of optical signatures

CSCC[C@H](NC(=O)[C@H](CC(C)C)NC(=O)[C@H](Cc1cnc[nH]1)NC(=O)CNC(=O)[C@@H](NC(=O)[C@H](C)NC(=O)[C@H](Cc1c[nH]c2ccccc12)NC(=O)[C@H](CCC(N)=O)NC(=O)[C@H](CC(N)=O)NC(=O)CNC(=O)[C@H](CC(C)C)NC(=O)[C@H](CCCN=C(N)N)NC(=O)[C@H](CCC(N)=O)NC(=O)[C@@H]1CCC(=O)N1)C(C)C)C(N)=O [bombesin]
Maximum increase in intracellular Ca2+ level [5]: 20±5%

NKH447
Effect of pretreatment on epinephrine-mediated DMR response (β2 adrenergic receptor): completely abolished the DMR responses mediated by epinephrine | Class of optical signature (DMR) induced by agonist [1]: an optical signature that is similar to those induced by either β2 or A2 agonists

epidermal growth factor [EGF]
Kd (EGFR; non-linear regression, read-out: Kd from one-phase decay constant K of the N-DMR signal): 5.76 nM | EC50 (EGFR; read-out: EC50 from amplitudes of the N-DMR signals vs EGF concentration): ~1.45 nM | Effect of preceding stimulation on trypsin-mediated [Ca2+]i elevation [6]: little effect on the [Ca^2+]i elevation mediated by trypsin | DMR signals induced by EGF (CHO cells): no clear P-DMR nor B-DMR signal | Effect of preceding stimulation on DMR responses mediated by trypsin or thrombin ([3]; EGF 100 nM, 100 nM trypsin, 40 unit/ml thrombin): totally blocked the N-DMR event, but only attenuated the P-DMR event | Effect of pretreatment on mβCD-induced response (quiescent A431 cells): significantly suppressed the mβCD-induced response

α-melanocyte stimulating hormone [α-MSH]
EC50 (MC receptors): 9 ± 1.6 nM | Class of optical signature (DMR) induced by agonist [1]: third class of optical signatures
